Columns and labels:
HeLa [1] = test: Antiproliferative activity against human HeLa cells assessed as inhibition of cell proliferation incubated for 48 hrs by MTT assay; type: functional, cell-based
MCF7 [2] = test: Antiproliferative activity against human MCF7 cells assessed as inhibition of cell proliferation incubated for 48 hrs by MTT assay; type: functional, cell-based; settings: MCF7, 48 h
SMMC-7721 [3] = test: Antiproliferative activity against human SMMC-7721 cells assessed as inhibition of cell proliferation incubated for 48 hrs by MTT assay; type: functional, cell-based; settings: SMMC-7721, 48 h
Salmon testes DNA = test: Binding affinity to salmon Testis DNA assessed as equilibrium binding constant by steady-state fluorescence spectroscopic analysis; settings: Salmo salar
HCT-15 = test: Cytotoxicity against human HCT-15 cells assessed as inhibition of cell growth incubated for 24 hrs by sulforhodamine B assay; type: functional, cell-based; settings: HCT-15, 24 h
HL-60 = test: Cytotoxicity against human HL-60 cells assessed as inhibition of cell growth incubated for 96 hrs by MTT assay; type: functional, cell-based; settings: HL-60, 96 h
U-937 = test: Cytotoxicity against human U-937 cells assessed as inhibition of cell growth incubated for 96 hrs by MTT assay; type: functional, cell-based; settings: U-937, 96 h
Calf thymus DNA [4] = test: Binding affinity to calf thymus DNA assessed as binding constant by fluorescence based EtBr-displacement based UV-Vis spectroscopic analysis; type: nucleic-acid assay; settings: Bos taurus
BGC-823 = test: Antiproliferative activity against human BGC-823 cells assessed as inhibition of cell proliferation incubated for 24 hrs by MTT assay; type: functional, cell-based; settings: BGC-823, 24 h
L02 = test: Antiproliferative activity against human HL7702 cells assessed as inhibition of cell proliferation incubated for 24 hrs by MTT assay; type: functional, cell-based; settings: L02, 24 h
MCF7 [5] = test: Antiproliferative activity against human MCF7 cells assessed as inhibition of cell proliferation incubated for 24 hrs by MTT assay; type: functional, cell-based; settings: MCF7, 24 h
HCT-116 [6] = test: Cytotoxicity against human HCT-116 cells assessed as inhibition of cell growth incubated for 72 hrs by MTT assay; type: functional, cell-based; settings: HCT-116, 72 h
Clupea harengus = test: Binding affinity to Atlantic herring DNA assessed as binding constant by fluorescence based EtBr-UV absorption spectral analysis
Escherichia coli = test: Antibacterial activity against Escherichia coli JM109 assessed as inhibition of bacterial growth incubated for 24 hrs by two-fold serial dilution assay; type: functional
Staphylococcus aureus [7] = test: Antibacterial activity against Staphylococcus aureus ATCC25923 assessed as inhibition of bacterial growth incubated for 24 hrs by two-fold serial dilution assay; type: functional
Micrococcus luteus = test: Antibacterial activity against Micrococcus luteus assessed as inhibition of bacterial growth incubated for 24 hrs by two-fold serial dilution assay; type: functional
Staphylococcus aureus [8] = test: Antibacterial activity against methicillin-resistant Staphylococcus aureus N315 assessed as inhibition of bacterial growth incubated for 24 hrs by two-fold serial dilution assay; type: functional
Pseudomonas aeruginosa = test: Antibacterial activity against Pseudomonas aeruginosa assessed as inhibition of bacterial growth incubated for 24 hrs by two-fold serial dilution assay; type: functional
Bacillus subtilis = test: Antibacterial activity against Bacillus subtilis ATCC6633 assessed as inhibition of bacterial growth incubated for 24 hrs by two-fold serial dilution assay; type: functional
Proteus = test: Antibacterial activity against Proteus ATCC13315 assessed as inhibition of bacterial growth incubated for 24 hrs by two-fold serial dilution assay; type: functional
Salmonella typhi = test: Antibacterial activity against Salmonella enterica subsp. enterica serovar Typhi assessed as inhibition of bacterial growth incubated for 24 hrs by two-fold serial dilution assay; type: functional
HCT-116 [9] = test: Cytotoxicity against human HCT-116 cells assessed as inhibition of cell growth incubated for 48 hrs by MTT assay; type: functional, cell-based; settings: HCT-116, 48 h
K562 = test: Cytotoxicity against human K562 cells assessed as inhibition of cell growth incubated for 48 hrs by MTT assay; type: functional, cell-based; settings: K562, 48 h
HepG2 = test: Cytotoxicity against human HepG2 cells assessed as inhibition of cell growth incubated for 48 hrs by MTT assay; type: functional, cell-based; settings: HepG2, 48 h
SMMC-7721 [10] = test: Cytotoxicity against human SMMC-7721 cells assessed as inhibition of cell growth incubated for 48 hrs by MTT assay; type: functional, cell-based; settings: SMMC-7721, 48 h
HeLa [11] = test: Cytotoxicity against human HeLa cells assessed as inhibition of cell growth by MTT assay; type: functional, cell-based
Calf thymus DNA [12] = test: Binding affinity to calf thymus DNA assessed as DNA intercalation by measuring change in melting temperature by thermal denaturation assay; type: nucleic-acid assay; settings: Bos taurus
Jurkat = test: Antiproliferative activity against human Jurkat cells assessed as inhibition of cell proliferation incubated for 72 hrs by MTT assay; type: functional, cell-based

O=C1c2cccc3cc(-n4ccnn4)cc(c23)C(=O)N1CCN1CCNCC1
IC50 (HeLa [1]): 300 nM
IC50 (MCF7 [2]): 300 nM
IC50 (SMMC-7721 [3]): 300 nM

Nc1ccc2c3c(cccc13)C(=O)N(CC[n+]1ccccc1)C2=O
Kb (Salmon testes DNA): 1.38 10^5/M

O=C1c2cccc3cccc(c23)C(=O)N1CCCNCc1ccco1
IC50 (HCT-15): 2440 nM

O=C1c2cccc3cc(-n4cc(-c5ccccc5)nn4)cc(c23)C(=O)N1CCO
IC50 (HeLa [1]): 300 nM
IC50 (MCF7 [2]): 300 nM
IC50 (SMMC-7721 [3]): 300 nM

O=C1c2cccc3c([N+](=O)[O-])ccc(c23)C(=O)N1CCCl
IC50 (HL-60): 300 nM
IC50 (U-937): 300 nM

Cc1ccc(-c2cc[n+]3c(c2)-c2cccc[n+]2CC3)cc1
K (Calf thymus DNA [4]): 2.8 10^6/M

NCCCN1C(=O)c2cccc3cccc(c23)C1=O [NAPHTHALIMIDOPROPYLAMINE]
IC50 (HCT-15): 2440 nM

CN(C)CCCN1C(=O)c2cccc3c2c(cc2[nH]c(-c4c[nH]c5ccccc45)nc23)C1=O
IC50 (BGC-823): 700 nM
IC50 (L02): 700 nM
IC50 (MCF7 [5]): 700 nM

O=C1c2cccc3cccc(c23)C(=O)N1CCCN(CCCN(CCO)CCO)CCCN1C(=O)c2cccc3cccc(c23)C1=O
IC50 (HCT-116 [6]): 820 nM

CN(C)CCNCCCN1C(=O)c2cccc3cccc(c23)C1=O
Kb (Clupea harengus): 1.15 10^4/M

O=C1c2cccc3c2c(cc2[nH]c(-c4c[nH]c5ccccc45)nc23)C(=O)N1NCc1ccccc1
IC50 (BGC-823): 700 nM
IC50 (L02): 700 nM
IC50 (MCF7 [5]): 700 nM

O=C1c2cccc3c2c(cc2[nH]c(-c4c[nH]c5ccccc45)nc23)C(=O)N1Nc1ccccc1
IC50 (BGC-823): 700 nM
IC50 (L02): 700 nM
IC50 (MCF7 [5]): 700 nM

NCCNCCCCCN1C(=O)c2cccc3cccc(c23)C1=O
Kb (Clupea harengus): 1.15 10^4/M

O=C1c2cccc3c(Sc4nc5ccccc5n4Cc4ccc(F)cc4)ccc(c23)C(=O)N1CCCCn1cncn1
MIC (Escherichia coli): > 512 µg/mL
MIC (Staphylococcus aureus [7]): > 512 µg/mL
MIC (Micrococcus luteus): > 512 µg/mL
MIC (Staphylococcus aureus [8]): > 512 µg/mL
MIC (Pseudomonas aeruginosa): > 512 µg/mL
MIC (Bacillus subtilis): > 512 µg/mL
MIC (Proteus): > 512 µg/mL
MIC (Salmonella typhi): > 512 µg/mL

O=C1c2cccc3cccc(c23)C(=O)N1CCCNCc1cccs1
IC50 (HCT-15): 2440 nM

O=C1c2cccc3c(Sc4nc5ccccc5n4Cc4cccc(F)c4)ccc(c23)C(=O)N1CCCCn1cncn1
MIC (Escherichia coli): > 512 µg/mL
MIC (Staphylococcus aureus [7]): > 512 µg/mL
MIC (Micrococcus luteus): > 512 µg/mL
MIC (Staphylococcus aureus [8]): > 512 µg/mL
MIC (Pseudomonas aeruginosa): > 512 µg/mL
MIC (Bacillus subtilis): > 512 µg/mL
MIC (Proteus): > 512 µg/mL
MIC (Salmonella typhi): > 512 µg/mL

NCCCNCCCCN1C(=O)c2cccc3cccc(c23)C1=O
Kb (Clupea harengus): 1.15 10^4/M

O=C1c2cccc3c(Sc4nc5ccccc5n4Cc4cccc(Cl)c4)ccc(c23)C(=O)N1CCCCn1cncn1
MIC (Escherichia coli): > 512 µg/mL
MIC (Staphylococcus aureus [7]): > 512 µg/mL
MIC (Micrococcus luteus): > 512 µg/mL
MIC (Staphylococcus aureus [8]): > 512 µg/mL
MIC (Pseudomonas aeruginosa): > 512 µg/mL
MIC (Bacillus subtilis): > 512 µg/mL
MIC (Proteus): > 512 µg/mL
MIC (Salmonella typhi): > 512 µg/mL

COC(=O)c1ccc2c3c(cccc13)C(=O)N(CCN(C)C)C2=O
IC50 (HCT-116 [9]): 13700 nM
IC50 (K562): 13700 nM
IC50 (HepG2): 13700 nM
IC50 (SMMC-7721 [10]): 13700 nM

Nc1ccc2c3c(cccc13)C(=O)N(c1cccc(-c3cc[n+]4c(c3)-c3cccc[n+]3CC4)c1)C2=O
K (Calf thymus DNA [4]): 2.3 10^6/M

NCCNCCCN1C(=O)c2cccc3cccc(c23)C1=O
Kb (Clupea harengus): 1.15 10^4/M

CCCCCCCCNN1C(=O)c2cccc3c2c(cc2[nH]c(-c4c[nH]c5ccccc45)nc23)C1=O
IC50 (BGC-823): 700 nM
IC50 (L02): 700 nM
IC50 (MCF7 [5]): 700 nM

O=C1c2cccc3c(Sc4nc5ccccc5n4Cc4ccc(Cl)cc4Cl)ccc(c23)C(=O)N1CCCCn1c[n+](Cc2ccccc2Cl)cn1
MIC (Escherichia coli): 2 µg/mL
MIC (Staphylococcus aureus [7]): 2 µg/mL
MIC (Micrococcus luteus): 2 µg/mL
MIC (Staphylococcus aureus [8]): 2 µg/mL
MIC (Pseudomonas aeruginosa): 2 µg/mL
MIC (Bacillus subtilis): 2 µg/mL
MIC (Proteus): 2 µg/mL
MIC (Salmonella typhi): 2 µg/mL

CN(C)CCN1C(=O)c2cccc3c2c(cc2nccnc23)C1=O
IC50 (HeLa [11]): 1900 nM
ΔTm (Calf thymus DNA [12]): 3.9 °C

CN(C)CCN1C(=O)c2cccc3c2c(cc2[nH]c(-c4c[nH]c5ccccc45)nc23)C1=O
IC50 (BGC-823): 700 nM
IC50 (L02): 700 nM
IC50 (MCF7 [5]): 700 nM

O=C1c2cccc3cccc(c23)C(=O)N1CCCCCC/N=C/c1ccccn1
IC50 (Jurkat): 5580 nM

CN(C)c1ccc2c3c(cccc13)C(=O)N(CCc1cc[n+](C)cc1)C2=O
Kb (Salmon testes DNA): 1.38 10^5/M

O=C1c2cccc3cccc(c23)C(=O)N1CCCN(CCCN1C(=O)c2cccc3cccc(c23)C1=O)CCN(CCO)CCO
IC50 (HCT-116 [6]): > 15000 nM

Reference: ChEMBL document CHEMBL5244223, “l,8-Naphthalimide based DNA intercalators and anticancer agents. A systematic review from 2007 to 2017” (Eur J Med Chem, 2018)
